Reference: US8852657B2, “Chromones as therapeutic agents” (Unigen, Inc., priority 2007, dated 2014)
Entries after “also recorded” stand apart in the source; their conditions may differ.

Tests used:
[1] = tested on: db/db mice; assay: Weekly fasting triglyceride levels in db/db mice; type: in vivo, mouse; conditions: after 10 weeks of treatment, P<0.05
Method: Weekly fasting triglyceride levels of male db/db mice treated with GW1929 (5 mg/kg), N-931 (375 mg/kg) and vehicle were taken for 10 weeks. Animals were provided with T2018 rodent diet ad libitum except when fasting. Animals were fasted overnight before measurements were taken. The values indicated are percent triglyceride levels of vehicle, n=8.

[2] = Feed consumption, UP780 dose-range study; type: in vivo, mouse; conditions: GW1929 5 mg/kg, Qmatrix 400 mg/kg, UP780 100, 200 and 400 mg/kg
Method: (§1) Once an induction of the disease on animals after 8 weeks of high fat diets was confirmed by monitoring of selected parameters, daily oral treatment was initiated. On each day, the test articles and the positive control GW1929 (Tocris Bioscience, Ellisville, Mo., Batch #2A/58705) were dissolved in 0.5% methylcellulose (Sigma, St. Louise Mo., Lot#116H0857) and delivered at an oral dose of 100, 200 and 400 mg/kg of UP780 (Lot # L1806QMAW-01); 400 mg/kg of Qmatrix® Aloe vera gel powder (QM400, Lot# G6319103-L3) as well as 5 mg/kg of GW1929. As GW1929 was not completely solublized in methylcellulose, it was first dissolved in DMSO (Sigma, St. Louis, Mo., Batch#064K0067). The final concentration of test compounds, including the vehicle, was then adjusted to contain 5% DMSO before drug administration. The carrier vehicle treated animals received 0.5% methylcellulose only. No detectable sign of irritation was observed after each drug or vehicle administration.
(§2) As described on Example 12, male C57BL/6J mice were purchased from Jackson Laboratories (Bar Harbor, Me.) at 6 weeks of age. […]
(§3) Three or four male C57BL/6J mice were housed in a mouse cage that had sections for feed and water. Feed intake was determined daily by measuring the difference between previously weighed high fat pellets value and what was left on the given day. […]

[3] = Body weight, UP780 dose-range study; type: in vivo, mouse; conditions: GW1929 5 mg/kg, Qmatrix 400 mg/kg, UP780 100, 200 and 400 mg/kg; weekly
Method: as §1, §2, §3

[4] = tested on: diabetic animal models; conditions: administered orally; Brown et al. (1999), Way et al. (2001); cited from earlier work
[5] = tested on: C57BL/6J mice fed high fat diet; assay: Plasma insulin level (ELISA), high-fat diet induced model; type: in vivo, mouse; conditions: day 14 of treatment after 8 weeks high-fat diet; P<0.05; GW1929 5 mg/kg, UP394 and UP396 100 mg/kg
Description: A high-fat diet induced animal model was developed and used for evaluation of potential therapeutic effects of chromone extracts. The C57BL/6J is a clinically relevant animal model that can be used in studies on metabolic disorders, pathophysiology of impaired glucose tolerance and for development of novel therapeutic agents (Ahren et al. (2004) Diabetes 53 (Supplement 3):S215-S219; Laakso et al. (2004) Diabetes Care 27:2253-2259; Kahn et al. (2004) Diabetes 53:3274-3285; Scheurink et al. (1998) European J Endo. 139:461-467; Yuan et al. (2002) Diabetes 51:1851-1858; Reitman et al. (2005) Endocrinology 145:3258-3264; Vlassara et al. (2005) Diabetes 54:2314-2319; Cawthome et al. (2002) Molecular and Cellular Proteomics 1:509-516). Methodology of model induction was first explained by Surwit et al. in 1988 (Diabetes, 37:1163-1167). In brief, impaired glucose tolerance and metabolic disorder like symptoms were inflicted successfully in C57BL/6J mice when fed with high fat diets for 8 weeks. Male C57BL/6J mice were purchased from Jackson Laboratories (Bar Harbor, Me.) at age of 6 weeks. One week after acclimation period, animals were divided into groups (n=5 or 6) and provided with high fat (45% kcal) rodent pellet (Research diets, Inc., New Brunswick, N.J.) and water ad libitum for 12 weeks except at times of glucose and insulin tolerance tests at which feed was withheld for three hours. Animals were maintained in a temperature controlled room (22.2° C.) on a 12 hour light-dark cycle. Blood glucose, cholesterol, and triglyceride were monitored every week for 12 weeks as described previously. Body weight measurement was taken once a week for 12 weeks.
Once induction of the metabolic disorders was confirmed by weekly monitoring of selected parameters (glucose, triglyceride and cholesterol) i.e. on the 8th week, daily intraperitoneal treatment was initiated and maintained for 4 weeks. […]
The plasma insulin levels were measured with an ELISA kit for insulin (Crystal Chem—Chicago, Ill.). […]

[6] = tested on: high fat diet induced C57BL/6J mice; assay: Fasting blood glucose, UP780 dose-range study; type: in vivo, mouse; conditions: weeks 5 and 7; UP780 200 mg/kg, GW1929 5 mg/kg
Method: as §1, §2
Fasting blood glucose, total cholesterol and triglyceride levels were measured using 15-20 μl of blood obtained from tail vein. […]

SMILES: CN(CCOc1ccc(C[C@H](Nc2ccccc2C(=O)c2ccccc2)C(=O)O)cc1)c1ccccn1 [GW1929, N-(2-Benzoylphenyl)-O-[2-(methyl-2-pyridinylamino)ethyl]-L-tyrosine]
- fasting triglyceride levels compared to vehicle [1]: significant reduction in triglyceride levels
- reduction of triglycerides ([1]; N931 375 mg/kg, GW1929 5 mg/kg): 43%
- feed consumption difference between groups [2]: no significant body weight gain or feed consumption differences
- body weight gain difference between groups [3]: no significant body weight gain or feed consumption differences; also recorded: No statistically significant body weight gain difference
- glucose, fatty acids and triglyceride levels [4]: decreases glucose, fatty acids and triglyceride levels
- plasma insulin levels compared to vehicle [5]: decreased the insulin level significantly; also recorded: Significant decreases in plasma insulin levels
- fasting glucose level compared to vehicle [6]: statistically significant lower fasting glucose level
